The values that follow are results of earlier work, collected in patent US20100179106A1, “MITOCHONDRIAL COMPOSITIONS AND USES THEREOF” (Gencia Corporation, priority 2007, published 2010).

For data set [1], the system named is patients with mitochondrial disorders. Conditions: short-term study, creatine supplementation (Tarnopolsky et al. 1997).
On the set-up of data set [2]: dose or concentration left out as unconfirmed. The following applies: dosages as high as (Harris et al. 1992).
The test system of the next data set is brain slice cultures. The following applies: 20 mM creatine, brain slice cultures (Li et al. 2004).

In the case of `CN(CC(=O)O)C(=N)N` [creatine, 2-(carbamimidoyl-methyl-amino) acetic acid], in data set [1], the “high-intensity anaerobic and aerobic activities” value is “improved”; the lower-intensity aerobic activities entry is reported as “no effect”. For the same molecule, the side effects result in data set [2] is recorded as “no reported side effects”. Besides, in the data set with brain slice cultures, the mitochondrial activity entry is on record as “sufficient to stimulate mitochondrial activity”.
